Here are results for one molecule from patent US9138408B2, “Use of taurine for treating alopecia” (L'OREAL, priority 2002, dated 2015).

Structures are written as SMILES. Entries after “also recorded” stand apart in the source; their conditions may differ.

The test system of the test is normal human dermal fibroblasts (NHDF pool PF2). Kind of test: Incorporation of thymidine, proline and leucine in macromolecules neosynthesized by fibroblasts in culture. Conditions: for Leucine incorporation / Proline incorporation / Thymidine incorporation: NHDF in vitro culture. The class given is cell-based. Here is the method:
A study was performed with the aim of evaluating, via a screening method, the effects of the compounds on the growth of fibroblasts and the synthesis of the major constituents of the extracellular matrix. The technique made it possible to study and evaluate the advantage of taurine on this cell metabolism (T. Shigematsu et al. Biochimica et Biophysica Acta 1200 (1994) 79-83).
A pool of normal human dermal fibroblasts (NHDF pool PF2, used at the eighth passage) was cultured under standard conditions in a medium: DMEM, 2 mM L-glutamine, 50 IU/ml/50 […] penicillin/streptomycin, 0.5% fetal calf serum.
Taurine was tested at concentrations of 10 mM and 1 mM in a sterile culture medium, against an untreated control blank.
The figures in bold are those for which there is a significant variation (stat. sign. meaning statistical significance: p<0.005). The results are expressed as a percentage of the control.

The mark [1] stands for this setting: at the two concentrations (1 mM, 10 mM), fibroblasts.

Under “1 mM taurine”, `NCCS(=O)(=O)O` [taurine, Taurine] had a Leucine incorporation of 100 % control, a Proline incorporation of 88 % control and a Thymidine incorporation of 89 % control. Where the note is “10 mM taurine”, this molecule showed a Leucine incorporation of 105 % control, a Proline incorporation of 87 % control and a Thymidine incorporation of 90 % control. Under setting [1], the “incorporation of leucine (representative of noncollagen protein synthesis), in words” value is listed as “did not significantly modify; also recorded: without impairing that of leucine”; the “incorporation of proline by the fibroblasts, in words” value was “did significantly inhibit; also recorded: reduces the incorporation of proline”; the “incorporation of thymidine (representative of cell proliferation), in words” value is reported as “did not significantly modify”.
